{"source": "patent US12240862B2", "about": "“Inhibitors of peptidylarginine deiminases” (Gilead Sciences, Inc., priority 2020, dated 2025)", "note": "pIC50: −log10 of the molar value."}
{"target": "T1, human PAD4 (Homo sapiens, UniProt Q9UM07)", "T1 construct": "human PAD4 (NM_012387), A2P663, was PCR amplified; His-SUMO (N, cleaved yes); made in house; host or cells: E. coli BL21(DE3)", "T1 sequence (Q9UM07 2-663)": "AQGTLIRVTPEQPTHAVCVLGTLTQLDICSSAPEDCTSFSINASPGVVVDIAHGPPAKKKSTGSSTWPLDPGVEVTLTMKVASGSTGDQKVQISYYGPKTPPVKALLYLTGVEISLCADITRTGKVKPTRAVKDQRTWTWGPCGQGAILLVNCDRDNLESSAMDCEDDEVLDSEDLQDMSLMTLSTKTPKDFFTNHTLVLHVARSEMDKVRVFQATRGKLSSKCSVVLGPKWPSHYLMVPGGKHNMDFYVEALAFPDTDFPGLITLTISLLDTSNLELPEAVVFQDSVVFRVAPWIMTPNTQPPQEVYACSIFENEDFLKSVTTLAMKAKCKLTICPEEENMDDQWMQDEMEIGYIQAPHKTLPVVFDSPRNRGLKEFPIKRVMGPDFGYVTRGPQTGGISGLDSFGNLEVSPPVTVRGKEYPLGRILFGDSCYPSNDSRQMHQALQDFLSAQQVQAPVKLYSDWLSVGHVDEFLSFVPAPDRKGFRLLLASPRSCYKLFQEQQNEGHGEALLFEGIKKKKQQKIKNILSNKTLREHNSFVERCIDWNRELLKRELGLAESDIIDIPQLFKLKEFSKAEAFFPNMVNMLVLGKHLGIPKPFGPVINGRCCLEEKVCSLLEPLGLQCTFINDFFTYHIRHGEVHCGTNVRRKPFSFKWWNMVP", "test": "In vitro PAD4 BAEE biochemical assay", "details": "human PAD4, BAEE substrate; 5 nM PAD4, 2 mM calcium chloride, 3 mM BAEE; geometric mean of multiple experiments", "summary_of_the_method": "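Ammonia generated from BAEE serves as the readout, measured by o-phthalaldehyde after EDTA termination. Final conditions: 5 nM human PAD4 (SUMO tag cleaved), 2 mM CaCl2, 3 mM BAEE, pH 7.6 MOPS buffer, 25 °C for 2 h following a 30-min compound preincubation.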"}
{"smiles": "COc1cc(C(=O)N2[C@H]3CC[C@@H]2[C@H](N)C3)cc2nc(-c3cc4ccc(N5C[C@@H](C)OCS5(=O)=O)nc4n3CC3CC3)c(C)n12", "note": "[Example 440, [(1~{R},2~{R},4~{S})-2-amino-7-azabicyclo [2.2.1]heptan-7-yl]-[2-[1-(cyclopropylmethyl)-6-[(6~{R})-6-methyl-3,3-dioxo-1,3,4-oxathiazinan-4-yl]pyrrolo [2,3-b]pyridin-2-yl]-5-methoxy-3-methylimidazo [1,2-a]pyridin-7-yl] methanone]", "pIC50": 6.68}
{"smiles": "COc1cc(C(=O)N[C@H]2CCCCNC2)cc2nc(-c3cc4ccc(N(C(F)F)S(C)(=O)=O)nc4n3CC3CC3)c(C)n12", "note": "[Example 296, ~{N}-[(3~{S})-azepan-3-yl]-2-[1-(cyclopropylmethyl)-6-[difluoromethyl (methylsulfonyl)amino]pyrrolo[2,3-b]pyridin-2-yl]-5-methoxy-3-methylimidazo[1,2-a]pyridine-7-carboxamide]", "pIC50": 4.61}
{"smiles": "COc1cc(C(=O)N2[C@H]3CC[C@@H]2[C@H](N)C3)cc2nc(-c3cc4ccc([C@@H](C)NC(=O)CC(C)(C)C(=O)O)nc4n3CC3CC3)c(C)n12", "note": "[Example 161, 4-[[(1~{R})-1-[2-[7-[(1~{R},2~{R},4~{S})-2-amino-7-azabicyclo[2.2.1]heptane-7-carbonyl]-5-methoxy-3-methylimidazo [1,2-a]pyridin-2-yl]-1-(cyclopropylmethyl)pyrrolo [2,3-b]pyridin-6-yl]ethyl]amino]-2,2-dimethyl-4-oxobutanoic acid]", "pIC50": 7.10}
{"smiles": "COc1cc(C(=O)N2CCC[C@@H](N)C2)cc2nc(-c3cc4ccc([C@@H](C)NC(=O)N(C)C)nc4n3CC3CC3)c(C)n12", "note": "[Example 253, 3-[(1~{R})-1-[2-[7-[(3~{R})-3-aminopiperidine-1-carbonyl]-5-methoxy-3-methylimidazo[1,2-a]pyridin-2-yl]-1-(cyclopropylmethyl)pyrrolo [2,3-b]pyridin-6-yl]ethyl]-1,1-dimethylurea]", "pIC50": 6.87}
{"smiles": "COc1cc(C(=O)N2[C@H]3CC[C@@H]2[C@H](N)C3)cc2nc(-c3cc4ccc([C@@H](C)NC(=O)c5ccccc5)nc4n3CC3CC3)c(C)n12", "note": "[Example 176]", "pIC50": 7.05}
{"smiles": "CCCC(=O)N[C@H](C)c1ccc2cc(-c3nc4cc(C(=O)N5[C@H]6CC[C@@H]5[C@H](N)C6)cc(OC)n4c3C)n(CC3CC3)c2n1", "note": "[Example 90, ~{N}-[(1~{R})-1-[2-[7-[(1~{R},2~{R},4~{S})-2-amino-7-azabicyclo[2.2.1]heptane-7-carbonyl]-5-methoxy-3-methylimidazo [1,2-a]pyridin-2-yl]-1-(cyclopropylmethyl)pyrrolo [2,3-b]pyridin-6-yl]ethyl]butanamide]", "pIC50": 7.52}
{"smiles": "COc1cc(C(=O)N2[C@H]3CC[C@@H]2[C@H](N)C3)cc2nc(-c3cc4ccc([C@H](C)CC(=O)N5CCCC5)nc4n3CC3CC3)c(C)n12", "note": "[Example 522, (3~{R})-3-[2-[7-[(1~{R},2~{R},4~{S})-2-amino-7-azabicyclo[2.2.1]heptane-7-carbonyl]-5-methoxy-3-methylimidazo [1,2-a]pyridin-2-yl]-1-(cyclopropylmethyl)pyrrolo[2,3-b]pyridin-6-yl]-1-pyrrolidin-1-ylbutan-1-one]", "pIC50": 6.87}
{"smiles": "COc1cc(C(=O)N2[C@H]3CC[C@@H]2[C@H](N)C3)cc2nc(-c3cc4ccc([C@@H](C)N5CCCC5)nc4n3CC3CC3)c(C)n12", "note": "[Example 272, [(1~{R},2~{R},4~{S})-2-amino-7-azabicyclo [2.2.1]heptan-7-yl]-[2-[1-(cyclopropylmethyl)-6-[(1~{R})-1-pyrrolidin-1-ylethyl]pyrrolo[2,3-b]pyridin-2-yl]-5-methoxy-3-methylimidazo[1,2-a]pyridin-7-yl]methanone]", "pIC50": 6.87}
{"smiles": "COc1cc(C(=O)N2CC[C@@H]3C[C@]3(N)C2)cc2nc(-c3cc4ccc(N(C(F)F)S(C)(=O)=O)nc4n3CC3CC3)c(C)n12", "note": "[Example 363, ~{N}-[2-[7-[(1~{R},6~{R})-1-amino-3-azabicyclo[4.1.0]heptane-3-carbonyl]-5-methoxy-3-methylimidazo[1,2-a]pyridin-2-yl]-1-(cyclopropylmethyl)pyrrolo [2,3-b]pyridin-6-yl]-~{N}-(difluoromethyl) methanesulfonamide]", "pIC50": 5.71}
{"smiles": "COc1cc(C(=O)N2[C@H]3CC[C@@H]2[C@H](N)C3)cc2nc(-c3cc4ccc(N5C(=O)CCCC5C)nc4n3CC3CC3)c(C)n12", "note": "(stereo partly shown) [Example 456, 1-[2-[7-[(1~{R},2~{R}, 4~{S})-2-amino-7-azabicyclo[2.2.1]heptane-7-carbonyl]-5-methoxy-3-methylimidazo[1,2-a]pyridin-2-yl]-1-(cyclopropylmethyl)pyrrolo[2,3-b]pyridin-6-yl]-6-methylpiperidin-2-one]", "pIC50": 6.60}
{"smiles": "CCC1C(N)C2CCC1N2C(=O)c1cc(OC)n2c(C)c(-c3cc4ccc(N(C(F)F)S(C)(=O)=O)nc4n3CC3CC3)nc2c1", "note": "(single isomer, unassigned) [Example 347]", "pIC50": 5.00}
{"smiles": "COc1cc(C(=O)N(C)C2CCCNC2)cc2nc(-c3cc4ccc(N(C(F)F)S(C)(=O)=O)nc4n3CC3CC3)c(C)n12", "note": "(stereo not shown) [Example 328, 2-[1-(cyclopropylmethyl)-6-[difluoromethyl (methylsulfonyl)amino]pyrrolo[2,3-b]pyridin-2-yl]-5-methoxy-~{N}, 3-dimethyl-~{N}-piperidin-3-ylimidazo [1,2-a]pyridine-7-carboxamide]", "pIC50": 5.31}
{"smiles": "COc1cc(C(=O)N[C@@H]2CC[C@@H](C)NC2)cc2nc(-c3cc4ccc(N(C(F)F)S(C)(=O)=O)nc4n3CC3CC3)c(C)n12", "note": "[Example 314, 2-[1-(cyclopropylmethyl)-6-[difluoromethyl (methylsulfonyl)amino]pyrrolo[2,3-b]pyridin-2-yl]-5-methoxy-3-methyl-~{N}-[(3~{R},6~{R})-6-methylpiperidin-3-yl]imidazo[1,2-a] pyridine-7-carboxamide]", "pIC50": 4.41}
{"smiles": "COc1cc(C(=O)N2CCC3CC3(N)C2)cc2nc(-c3cc4ccc(N(C(F)F)S(C)(=O)=O)nc4n3CC3CC3)c(C)n12", "note": "(stereo not shown) [Example 365, ~{N}-[2-[7-(1-amino-3-azabicyclo[4.1.0]heptane-3-carbonyl)-5-methoxy-3-methylimidazo [1,2-a]pyridin-2-yl]-1-(cyclopropylmethyl)pyrrolo [2,3-b]pyridin-6-yl]-~{N}-(difluoromethyl) methanesulfonamide]", "pIC50": 6.39}
{"smiles": "COc1cc(C(=O)N2[C@H]3CC[C@@H]2[C@H](N)C3)cc2nc(-c3cc4ccc([C@@H](C)NC(=O)C56CC(C(F)(F)F)(C5)C6)nc4n3CC3CC3)c(C)n12", "note": "[Example 157, ~{N}-[(1~{R})-1-[2-[7-[(1~{R},2~{R},4~{S})-2-amino-7-azabicyclo[2.2.1]heptane-7-carbonyl]-5-methoxy-3-methylimidazo [1,2-a]pyridin-2-yl]-1-(cyclopropylmethyl)pyrrolo [2,3-b]pyridin-6-yl]ethyl]-3-(trifluoromethyl)bicyclo [1.1.1]pentane-1-carboxamide]", "pIC50": 6.88}
{"smiles": "COc1cc(C(=O)N2[C@H]3CC[C@@H]2[C@H](N)C3)cc2nc(-c3cc4ccc([C@@H](C)NC(=O)c5c(F)cccc5F)nc4n3CC3CC3)c(C)n12", "note": "[Example 16, ~{N}-[(1~{R})-1-[2-[7-[(1~{R},2~{R},4~{S})-2-amino-7-azabicyclo [2.2.1]heptane-7-carbonyl]-5-methoxy-3-methylimidazo [1,2-a]pyridin-2-yl]-1-(cyclopropylmethyl)pyrrolo[2,3-b]pyridin-6-yl]ethyl]-2,6-difluorobenzamide]", "pIC50": 6.94}
